In US10844092B2, “Peptide for promoting regeneration of dentin or dental pulp tissue” (HysensBio Co., Ltd., priority 2016, dated 2020):

tested on: Dspp gene; assay: mRNA level of Dspp gene in MDPC-23 cells by real-time PCR; format: cell-based, mouse; conditions: 48 hours, ratio relative to Dspp mRNA level of control group, triplicate
Description: The MDPC-23 cells cultured in Example 2-1 were treated with the peptides of the respective groups which were synthesized in Example 1, and cultured for 48 hours. Then, mRNA levels of an odontoblast differentiation marker Dspp gene expressed in the MDPC-23 cells were measured, and a ratio of the measured Dspp mRNA level relative to a Dspp mRNA level measured in a control group was calculated, respectively (Tables 13 to 24). Further, mean values of the Dspp mRNA levels measured in the peptides of respective groups were compared between the groups (FIG. 1B). In this regard MDPC-23 cells which were treated with none of the peptides of the present invention were used as a control group.
The expression levels of the Dspp gene were measured by RT-PCR and real time PCR analysis: In detail, total RNA was extracted from the MDPC-23 cells with TRIzol reagent. 2 μg of the total RNA, 1 μl of reverse transcriptase, and 0.5 μg oligo (dT) were used to synthesize cDNA. The synthesized cDNA were used in real-time polymerase chain reaction. The real-time polymerase chain reaction was performed on an ABI PRISM 7500 sequence detection system (Applied Biosystems) using the following primers and a SYBR GREEN PCR Master Mix (Takara, Japan). The real-time polymerase chain reaction was performed under conditions of 94° C., 1 min; 95° C., 15 sec 60° C., 34 sec for 40 cycles. Results were analyzed by a comparative cycle threshold (CT) method. In this regard, Gapdh gene was used as an internal control. The experiments were performed in triplicate, and then mean values and standard deviations thereof were taken as measured values.

Point of comparison: “65 (KYKQRKKNKY; Synthetic construct of novel peptide) [compound 65]”, “mRNA level of Dspp gene, Mean” value 1.723. Against it:
- 61 (KYRQKKKSYK; Synthetic construct of novel peptide) [compound 61] — higher, 2.301
- 62 (KYRQKRKSYK; Synthetic construct of novel peptide) [compound 62] — lower, 1.672
- 63 (KYRQKKRSYK; Synthetic construct of novel peptide) [compound 63] — higher, 1.769
- 64 (KYRQKRRSYK; Synthetic construct of novel peptide) [compound 64] — higher, 1.967
- 66 (KYKQRKRNKY; Synthetic construct of novel peptide) [compound 66] — lower, 1.627
- 67 (KYKQRRKNKY; Synthetic construct of novel peptide) [compound 67] — higher, 1.777
- 68 (KYKQRRRNKY; Synthetic construct of novel peptide) [compound 68] — lower, 1.432
- 69 (KYKQKKKNKY; Synthetic construct of novel peptide) [compound 69] — higher, 2.011
- 70 (KYKQKRKNKY; Synthetic construct of novel peptide) [compound 70] — higher, 1.927
- 71 (KYKQKKRNKY; Synthetic construct of novel peptide) [compound 71] — higher, 1.879
- 72 (KYKQKRRNKY; Synthetic construct of novel peptide) [compound 72] — higher, 2.011
- 73 (KYKQRKKSKY; Synthetic construct of novel peptide) [compound 73] — higher, 2.035
- 74 (KYKQRKRSKY; Synthetic construct of novel peptide) [compound 74] — higher, 2.011
- 75 (KYKQRRKSKY; Synthetic construct of novel peptide) [compound 75] — higher, 1.997
- 76 (KYKQRRRSKY; Synthetic construct of novel peptide) [compound 76] — higher, 2.351
- 77 (KYKQKKKSKY; Synthetic construct of novel peptide) [compound 77] — higher, 1.729
- 78 (KYKQKRKSKY; Synthetic construct of novel peptide) [compound 78] — higher, 2.635
- 79 (KYKQKKRSKY; Synthetic construct of novel peptide) [compound 79] — higher, 2.231
- 80 (KYKQKRRSKY; Synthetic construct of novel peptide) [compound 80] — higher, 1.837
- 81 (KYKQRKKNYK; Synthetic construct of novel peptide) [compound 81] — higher, 3.092
- 82 (KYKQRKRNYK; Synthetic construct of novel peptide) [compound 82] — higher, 3.361
- 83 (KYKQRRKNYK; Synthetic construct of novel peptide) [compound 83] — higher, 3.572
- 84 (KYKQRRRNYK; Synthetic construct of novel peptide) [compound 84] — higher, 3.702
- 85 (KYKQKKKNYK; Synthetic construct of novel peptide) [compound 85] — higher, 3.670
- 86 (KYKQKRKNYK; Synthetic construct of novel peptide) [compound 86] — higher, 3.705
- 87 (KYKQKKRNYK; Synthetic construct of novel peptide) [compound 87] — higher, 3.888
- 88 (KYKQKRRNYK; Synthetic construct of novel peptide) [compound 88] — higher, 4.021
- 89 (KYKQRKKSYK; Synthetic construct of novel peptide) [compound 89] — higher, 4.211
- 90 (KYKQRKRSYK; Synthetic construct of novel peptide) [compound 90] — higher, 4.811
- 91 (KYKQRRKSYK; Synthetic construct of novel peptide) [compound 91] — higher, 4.362
- 92 (KYKQRRRSYK; Synthetic construct of novel peptide) [compound 92] — higher, 4.211
- 93 (KYKQKKKSYK; Synthetic construct of novel peptide) [compound 93] — higher, 4.525
- 94 (KYKQKRKSYK; Synthetic construct of novel peptide) [compound 94] — higher, 3.836
- 95 (KYKQKKRSYK; Synthetic construct of novel peptide) [compound 95] — higher, 4.620
- 96 (KYKQKRRSYK; Synthetic construct of novel peptide) [compound 96] — higher, 5.211

tested on: DSP; assay: Immunostaining of transplanted tissues for DSP; format: in vivo, immunocompromised mice; conditions: 6 weeks after transplantation, FIG. 4
Description: (§1) Briefly, the removed tissues were fixed in 4% paraformaldehyde, decalcified in 10% EDTA (pH 7.4), embedded in paraffin, and then immunostained with anti-DSP and anti-BSP antibodies at a dilution of 1:150 as primary antibodies, and reacted with biotin-labeled goat anti-rabbit IgG (Vector Labs) as secondary antibodies to determine DSP and BSP levels (FIG. 4). In this regard, the tissue transplanted with an implant including none of the peptides of the present invention was used as a control group.
(§2) In this regard, a tissue transplanted with an implant including none of the peptides of the present invention was used as a control group.

“KYKQKKRNYK (Synthetic construct of novel peptide) [SEQ ID NO: 87]” was tested, and the DSP expression level was “relatively high DSP expression level”.

same assay, conditions: 12 weeks after transplantation, FIG. 7

For “KYKQKKRNYK (Synthetic construct of novel peptide) [SEQ ID NO: 87]”, the DSP expression level was “relatively very high DSP expression levels”.

tested on: BSP; assay: Immunostaining of transplanted tissues for BSP; format: in vivo, immunocompromised mice; conditions: 6 weeks after transplantation, FIG. 4
Description: as §1, §2

With “KYKQKKRNYK (Synthetic construct of novel peptide) [SEQ ID NO: 87]” the BSP expression level was “low BSP expression level”.

same assay, conditions: 12 weeks after transplantation, FIG. 7

With “KYKQKKRNYK (Synthetic construct of novel peptide) [SEQ ID NO: 87]” the BSP expression level was “low BSP expression level”.

tested on: physiologic dentin (tertiary dentin); assay: Indirect pulp capping canine model, physiologic (tertiary) dentin formation; format: in vivo, dogs; conditions: deep cavity model, 1.5 μg, together with GI cement, 3 weeks, FIG. 11
Description: In detail, to establish dentin-damaged canine models by indirect pulp capping, a part of enamel in the cervical part was removed from the premolars of 12-month-old adult dogs by using a dental bur. The dentin was shallowly removed according to the exposure degree of the dentin to form a shallow cavity, thereby establishing a shallow cavity model. The dentin was deeply removed such that the dental pulp was seen through, but not exposed to the outside, thereby establishing a deep cavity model. The models were treated with the control group, the peptide of Group 11, or the peptide of Group 12. 3 weeks later, the adult dogs were euthanized, and teeth were extracted therefrom.
The extracted teeth were fixed in 4% paraformaldehyde for 2.4 hours, washed with PBS (pH 7.4) several times, and then decalcified with 10% formic acid. The decalcified teeth were embedded in paraffin to prepare tissue sections. The tissue sections were stained with hematoxylin/eosin (H&E), and dentin regeneration capabilities were evaluated by histological analysis.

“KYKQKKRNYK (Synthetic construct of novel peptide) [SEQ ID NO: 87]” was tested, and the “dentin regeneration (histological analysis, H&E)” value was “regeneration of physiologic tertiary dentin (TD) which was continuous with the odontoblast processes of the original dentin structure was observed”.

same assay, conditions: shallow cavity model, 1.5 μg, 3 weeks, FIG. 10

For “KYKQKKRNYK (Synthetic construct of novel peptide) [SEQ ID NO: 87]”, the “dentin regeneration (histological analysis, H&E)” value was “regeneration of physiologic tertiary dentin (TD) which was continuous with the odontoblast processes of the original dentin structure was observed”.

tested on: physiologic dentin (tertiary dentin); assay: Direct pulp capping canine model, physiologic (tertiary) dentin formation; format: in vivo, dogs; conditions: exposed pulp, peptide 1.5 μg, sealed with MTA, covered with GI cement, 3 weeks, FIG. 12
Description: In detail, to establish dentin-damaged canine models by direct pulp capping, the enamel and dentin in the cervical part were removed from the premolars of 12-month-old adult dogs by using a dental bur so that the dental pulp was exposed to the outside. The models were treated with the control group, the peptide of Group 11, or the peptide of Group 12. 3 weeks later, the adult dogs were euthanized and teeth were extracted therefrom.
The extracted teeth were fixed in 4% paraformaldehyde for 24 hours, washed with PBS (pH 7.4) several times, and then decalcified with 10% formic acid. The decalcified teeth were embedded in paraffin to prepare tissue sections. The tissue sections were stained with hematoxylin/eosin (H&E), and dentin regeneration capabilities were evaluated by histological analysis.

For “KYKQKKRNYK (Synthetic construct of novel peptide) [SEQ ID NO: 87]”, the “dentin regeneration (histological analysis, H&E)” value was “new physiologic dentin (TD) which was continuous with the odontoblast processes of the original dentin was formed”.
